# Patent US20070232556A1, “Methods and compositions for the treatment of neurological diseases and disorders” (priority 2006, published 2007)
# Assays:
# wt microglia = assay: Microglial phagocytosis of aggregated fluorescein-labeled Aβ1-42 (flow cytometry), wt microglia; assay type: cell-based, mouse; details: for Aβ1-42 uptake (percent of wt controls): n=6
# Description: (§1) Microglial Aβ phagocytosis. At DIV 14, microglia were seeded in 6-well plates at 1.5×10^5 cells per well in microglial culture medium. After 2hr seeding, medium was changed with 1.5 ml of serum-free DMEM medium containing penicillin and streptomycin. To make aggregated Aβ for phagocytosis, Aβ was dissolved in 2 mM NaOH and was diluted into 10 μM of stock solution (100×) in PBS followed by incubation at 37° C. for 2 hr and monitored by turbidity. For studying signaling pathways involved in Aβ phagocytosis, some microglia were pre-treated for 1 hr with AH6809 (20 μM), butaprost ([…]), SC51089 (10 μM), PTPE2 (20 μM), forskolin (50 μM), or BIM (10 μM) prior to treatment with aggregated fluorescein labeled AP1-42 (100 nM). After 24hr incubation of Aβ, cells were washed with PBS followed by trypsinization (0.05%) and centrifugation. Cells were then re-suspended in PBS and subjected to flow cytometry. Flow cytometer (FACScan, BD Biosciences, San Jose, Calif.) set at un-gated 10,000 cells per measure was used to analyze Aβ uptake as an indication of Aβ phagocytosis. Data were analyzed using Summit Mo-Flo software (Cytomation, Fort Collins, Colo.). Phagocytosis was presented as percent of mean FITC intensity in wt controls treated with Aβ. Some cells were plated onto chambered slides at 1×10^4 for assessing cellular uptake of Aβ using fluorescent microscope (Nikon TE200).
# EP2^−/− microglia = assay: Microglial phagocytosis of aggregated fluorescein-labeled Aβ1-42 (flow cytometry), EP2−/− microglia; assay type: cell-based, mouse
# Description: as §1
# [1] = BIM at 10 μM, 1 hr pre-treatment, 100 nM fluorescein-Aβ1-42, 24 hr
molecule,measurement,setting,value
O=S(=O)(NCCNC/C=C/c1ccc(Br)cc1)c1cccc2cnccc12 [H89],Effect on Aβ1-42 uptake,wt microglia; PKA inhibitor,did not enhanced Aβ1-42 uptake
CCCC1([C@H](O)C/C=C/[C@H]2[C@H](O)CC(=O)[C@@H]2CCCCCCC(=O)OC)CCC1 [butaprost],Aβ1-42 uptake (percent of wt controls),wt microglia; 1 μM,98±3%
same,Aβ1-42 uptake (percent of wt controls),wt microglia; 10 μM,104±2%
same,Aβ1-42 uptake (percent of wt controls),wt microglia; 50 μM,92±2%
SC51089,Effect on Aβ1-42 phagocytosis,EP2^−/− microglia; SC51089 at 10 μM,without effect
same,Effect on Aβ1-42 phagocytosis,wt microglia; SC51089 at 10 μM,without effect
"O=C(O)CCC/C=C\C[C@H]1C(=O)C[C@@H](O)[C@@H]1/C=C/[C@@H](O)CCc1ccccc1 [PTPE2, 17-phenyl trinor prostaglandin E2]",Effect on Aβ1-42 phagocytosis,EP2^−/− microglia; PTPE2 at 20 μM,without effect
same,Effect on Aβ1-42 phagocytosis,wt microglia; PTPE2 at 20 μM,without effect
bisindolylmaleimide [BIM],"Aβ1-42 uptake, % of wt basal Aβ1-42 uptake",EP2^−/− microglia; [1],35±4%
same,"Aβ1-42 uptake, % of wt basal Aβ1-42 uptake",wt microglia; [1],36±4%
